Measurements: publication PMC7910904, “Improving the Antioxidant Properties of Calophyllum inophyllum Seed Oil from French Polynesia: Development and Biological Applications of Resinous Ethanol-Soluble Extracts” (Antioxidants, 2021)
Values after ≈ are worked out from the molar mass of the structure shown.

Tests used:
DPPH assay = settings: for IC50: metabolites and standards, in dichloromethane
Experimental: Experiments were performed according to previous procedures. Aliquots of dichloromethane solutions of oil or fractions (50–500 mg/mL) or test compounds (final concentration 0.01–2 mM) were added to 200 µL of a freshly prepared DPPH solution (75 mg/L), and the final volume was adjusted to 300 µL with dichloromethane to obtain a final DPPH concentration of 0.13 mM. The absorbance was read at 517 nm on a microplate reader 3 min after sample addition. Experiments were performed in triplicate and averaged. The DPPH inhibition was calculated as follows:Inhibition (%) = [100 × (A0 − A)/A0](1)

[1] = Total peroxyl radical-trapping potential (TRAP) assay; settings: for TRAP TE: metabolites and standards: activity of a 1 µM-solution relative to 1 µM Trolox
Experimental: The experimental protocol of the TRAP assay was previously reported. Briefly, AAPH (150 mM) was dissolved in 10 mL of Tris HCl buffer solution (100 mM, pH 7.4), and the solution was kept at 37 °C for 30 min to initiate thermal radical formation. A luminol stock solution (1 mM) was prepared in 50 mL Tris HCl buffer and kept in darkness at 4 °C. A 78 µM, working luminol solution was prepared before each assay by dilution in Tris HCl buffer. Samples for assays were prepared as follows: 2 mL of AAPH (final concentration, 100 mM) and 500 μL of luminol solution (final concentration, 13 µM) were introduced in a 3 mL tube; then, 500 μL of pure acetone (blank) or solution of the tested oil or extract in acetone (0.005–0.2 mg/mL) or DMSO (test compounds: 5–300 µM) were added and the mixture vortexed for 5 s before luminescence analysis. A calibration curve was obtained in the same conditions using the antioxidant Trolox (1–40 μM) as a standard.
Quantification of radical scavenging capacity was performed by integrating the area under the curve (AUC) for the sample and blank solutions, and the results are expressed as Trolox Equivalents (TE) using Equation (2):TE = ([Trolox] × ΔAUC Sample)/([Sample] × ΔAUC Trolox)(2) where ΔAUC Sample (Trolox) = AUC Blank − AUC Sample (Trolox).

[2] = tested on: Staphylococcus aureus (ATCC 6538); experiment: Antimicrobial disk-diffusion agar method; format: cell-based; settings: for Antimicrobial activity against S. aureus, in words: 20 µg per disc; for zone of inhibition at 20 µg/disc: Staphylococcus aureus, ATCC6538, 20 µg/disk, 24 h, read-out: S. aureus Diameter of the zone of inhibition
M. tuberculosis H37 RV = experiment: Anti-mycobacterial Microplate-based Alamar Blue assay (MABA); format: cell-based; settings: Mycobacterium tuberculosis, H37RV
3T3 fibroblasts = experiment: MTT cytotoxicity on 3T3 fibroblasts; format: cell-based, murine; settings: Mus musculus, Fibroblast, 50% viability after 48 h
[3] = tested on: A549 human lung carcinoma cells; experiment: MTT cytotoxicity on A549 cells; format: cell-based; settings: 50% viability after 48 h
[4] = Superoxide radical quenching (allopurinol-XO generator, lucigenin luminescence); settings: glycine buffer/acetone
Experimental: All reactants were dissolved in glycine buffer, and the reaction was carried out at 25 °C [30]. […] The test tube was inserted in the luminometer, and reaction was initiated by adding a XO suspension (2 µL, 11 mU/mL). Luminescence was monitored for a total period of 7 min and O2^•− quenching was calculated by subtracting areas under the curve against blank. Each measurement was performed in triplicate.

[5] = Metal chelating capacity (ferrozine); settings: EDTA equivalents per gram of extract
[6] = target: T1, Lipoxygenase (15-LOX, soybean) (Glycine max, UniProt P08170); experiment: Lipoxygenase inhibitory activity (Cayman kit); format: biochemical; settings: compounds at 100 µg/mL
T1 sequence (P08170 1-839): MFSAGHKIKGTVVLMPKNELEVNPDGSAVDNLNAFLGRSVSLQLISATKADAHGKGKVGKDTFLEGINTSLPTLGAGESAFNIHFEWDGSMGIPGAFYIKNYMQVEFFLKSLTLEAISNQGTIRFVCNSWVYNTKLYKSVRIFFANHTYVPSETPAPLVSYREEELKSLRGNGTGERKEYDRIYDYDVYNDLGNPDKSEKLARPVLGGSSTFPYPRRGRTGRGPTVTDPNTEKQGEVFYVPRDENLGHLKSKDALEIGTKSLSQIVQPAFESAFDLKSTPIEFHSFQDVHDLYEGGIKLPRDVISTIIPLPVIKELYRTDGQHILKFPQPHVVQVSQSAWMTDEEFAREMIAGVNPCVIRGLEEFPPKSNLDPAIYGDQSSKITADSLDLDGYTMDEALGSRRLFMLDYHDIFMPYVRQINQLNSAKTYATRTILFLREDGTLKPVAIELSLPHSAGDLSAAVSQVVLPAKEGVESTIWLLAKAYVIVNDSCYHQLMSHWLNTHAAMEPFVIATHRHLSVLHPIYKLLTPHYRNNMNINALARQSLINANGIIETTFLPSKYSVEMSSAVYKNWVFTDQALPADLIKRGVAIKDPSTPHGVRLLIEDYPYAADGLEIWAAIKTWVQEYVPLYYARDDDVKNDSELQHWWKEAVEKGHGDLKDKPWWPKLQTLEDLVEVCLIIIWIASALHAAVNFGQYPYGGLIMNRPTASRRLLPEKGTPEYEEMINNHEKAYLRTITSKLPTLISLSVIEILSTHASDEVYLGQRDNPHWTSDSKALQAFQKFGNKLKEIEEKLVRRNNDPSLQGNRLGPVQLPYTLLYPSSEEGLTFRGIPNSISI
Experimental: Lipoxygenase (15-LOX, soybean) inhibitory activity was evaluated using a commercial assay kit (Cayman Chemicals Co; Item No. 760700) according to the manufacturer’s instructions. Solutions of test samples (10 μL) in methanol were added into 96-wells plates together with assay buffer, and the enzyme was added. The reaction was initiated by adding 10 μL of arachidonic acid to the wells and the plate was placed on a shaker for 15 min. Chromogen solution (100 μL) was added to the wells, the plate was then placed on a shaker for 10 min and absorbance was read at 495–500 nm. […] Results are expressed as a percentage relative to the activity without the test compound.

| Structure (SMILES) | DPPH scavenging capacity, in words (DPPH assay) | IC50 (DPPH assay) | TRAP activity, in words [1] | TRAP TE [1] | Antimicrobial activity against S. aureus, in words [2] | zone of inhibition at 20 µg/disc [2] | MIC (M. tuberculosis H37 RV) | IC50 (3T3 fibroblasts) | IC50 [3] | DPPH: times more active than inophyllums E and C (DPPH assay) | TRAP efficiency relative to Trolox [1] | O2•− Quenching IC50 [4] | MCC [5] | inhibition at 100 µg/mL [6] |
| --- | --- | --- | --- | --- | --- | --- | --- | --- | --- | --- | --- | --- | --- | --- |
| C/C=C(\C)C(=O)c1c(OC)c2c(c3c(-c4ccccc4)cc(=O)oc13)OC(C)(C)C=C2 [Calophyllolide] | slightly active | ~890 µM | weakly active | 0.48 ± 0.08 TE | significant activity | 19 ± 3 mm | > 15 µg/mL | 49 ± 4 µg/mL (≈ 118 µM) | 3.1 ± 0.9 µg/mL (≈ 7.44 µM) |  |  |  |  |  |
| C[C@@H]1C(=O)c2c(c3c(c4c(-c5ccccc5)cc(=O)oc24)OC(C)(C)C=C3)O[C@@H]1C [Inophyllum E] | moderately active | 481 ± 7 µM | weakly active | 0.91 ± 0.04 TE |  | 14 ± 2 mm | > 15 µg/mL | 120 ± 9 µg/mL (≈ 298 µM) | 44.8 ± 2.2 µg/mL (≈ 111 µM) |  |  |  |  |  |
| CCCc1cc(=O)oc2c3c(c4c(c12)OC(C)(C)C=C4)O[C@H](C)[C@@H](C)[C@@H]3O [Calanolide A] | slightly active | ~950 µM |  | 0.40 ± 0.02 TE |  | 14 ± 1 mm | 4.1 ± 0.3 µg/mL (≈ 11.1 µM) | 52 ± 8 µg/mL (≈ 140 µM) | 8.2 ± 1.7 µg/mL (≈ 22.1 µM) |  |  |  |  |  |
| C/C=C(\C)C(=O)c1c(OC)c2c(c3c(CCC)cc(=O)oc13)OC(C)(C)C=C2 [Calanolide GUT 70] | slightly active | ~900 µM | weakly active | 0.30 ± 0.03 TE |  |  |  |  |  |  |  |  |  |  |
| [H]/N=C(/N)N[C@H]1[C@H](O)[C@@H](O)[C@H](O[C@@H]2O[C@@H](C)[C@](O)(C=O)[C@H]2O[C@@H]2O[C@@H](CO)[C@H](O)[C@@H](O)[C@@H]2NC)[C@@H](N/C(N)=N\[H])[C@@H]1O [Streptomycin, reference compound] |  |  |  |  |  |  | 0.4 ± 0.1 µg/mL (≈ 0.688 µM) |  |  |  |  |  |  |  |
| CCC(C)c1cc(=O)oc2c3c(c4c(c12)OC(C)(C)C=C4)OC(C)C(C)C3O (stereo not drawn) [Tamanolide D] | moderately active | 779 ± 7 µM |  | 1.36 ± 0.20 TE |  | 12 ± 2 mm | 5.1 ± 0.3 µg/mL (≈ 13.3 µM) | 46 ± 5 µg/mL (≈ 120 µM) | 9.3 ± 1.2 µg/mL (≈ 24.2 µM) |  |  |  |  |  |
| Cc1onc(-c2ccccc2)c1C(=O)N[C@@H]1C(=O)N2[C@@H]1SC(C)(C)[C@@H]2C(=O)O [Oxacillin, reference compound] |  |  |  |  |  | 30 ± 1 mm |  |  |  |  |  |  |  |  |
| C[C@@H]1[C@@H](C)Oc2c3c(c4c(-c5ccccc5)cc(=O)oc4c2[C@@H]1O)OC(C)(C)C=C3 [Inophyllum P] | strongly active | 26.2 ± 3.1 µM | strong antioxidant activity | 4.11 ± 0.10 TE | significant activity | 17 ± 1 mm | 5.7 ± 0.3 µg/mL (≈ 14.1 µM) | 92 ± 4 µg/mL (≈ 227 µM) | 11.3 ± 0.6 µg/mL (≈ 27.9 µM) | 20–30 times | about four times more efficient than Trolox |  |  |  |
| CCCc1cc(=O)oc2c3c(c4c(c12)OC(C)(C)C=C4)O[C@H](C)[C@H](C)C3=O [Calanolide D] | inactive | > 1000 µM |  |  |  |  |  |  |  |  |  |  |  |  |
| C[C@H]1Oc2c3c(c4c(-c5ccccc5)cc(=O)oc4c2C(=O)[C@@H]1C)OC(C)(C)C=C3 [Inophyllum C] | moderately active | 701 ± 9 µM | weakly active | 0.21 ± 0.04 TE |  |  |  |  |  |  |  |  |  |  |
| C=C(C)C(CC=C(C)C)CC1(CC=C(C)C)C(=O)C(C(CCC)CC(=O)O)=C(O)C2=C1O[C@H](C)[C@@H](C)C2=O (stereo partly drawn) [Inocalophyllin B] | moderately active | 583 ± 17 µM | significant TRAP activity | 1.07 ± 0.06 TE | active | 20 ± 2 mm | > 15 µg/mL | 41 ± 5 µg/mL (≈ 77.8 µM) | 4.2 ± 1.3 µg/mL (≈ 7.97 µM) |  |  |  |  |  |
| COc1ccc(O)c(C(C)(C)C)c1 [BHA, reference compound] |  | 94.9 ± 6.1 µM |  | 3.46 ± 0.20 TE |  |  |  |  |  |  |  |  |  |  |
| Cc1c(C)c2c(c(C)c1O)CCC(C)(C(=O)O)O2 (stereo not drawn) [Trolox, 6-hydroxy-2,5,7,8-tetramethylchroman-2-carboxylic acid, reference compound] |  | 21.2 ± 0.8 µM |  | 1 TE |  |  |  |  |  |  |  |  |  |  |
| Oc1ccc2c(c1)OCO2 [Sesamol, reference compound] |  | 66.9 ± 3.1 µM |  | 1.34 ± 0.09 TE |  |  |  |  |  |  |  |  |  |  |
| CCCc1cc(=O)oc2c3c(c4c(c12)OC(C)(C)C=C4)O[C@H](C)[C@@H](C)C3=O [12-Oxocalanolide A] | inactive | > 1000 µM |  |  | significant activity | 18 ± 2 mm | > 15 µg/mL | 36 ± 8 µg/mL (≈ 97.7 µM) | 1.9 ± 0.1 µg/mL (≈ 5.16 µM) |  |  |  |  |  |
| O=c1c(O)c(-c2ccc(O)c(O)c2)oc2cc(O)cc(O)c12 [Quercetin] |  | 14.1 ± 0.21 µM |  | 6.31 ± 0.24 TE |  |  |  |  |  |  |  | 0.083 ± 0.06 µg/mL | 105 ± 3 µmol EDTAE/g | 83 ± 2% |
